{"source": "paper PMC2994747", "about": "“Molecular Characterization of c-Abl/c-Src Kinase Inhibitors Targeted against Murine Tumour Progenitor Cells that Express Stem Cell Markers” (PLoS ONE, 2010)", "key": {"[1]": {"target": "T1, c-Abl (Homo sapiens, UniProt P00519)", "T1 construct": "His tag; purchased Upstate (Lake Placid, NY, USA)", "T1 sequence (P00519 whole entry)": "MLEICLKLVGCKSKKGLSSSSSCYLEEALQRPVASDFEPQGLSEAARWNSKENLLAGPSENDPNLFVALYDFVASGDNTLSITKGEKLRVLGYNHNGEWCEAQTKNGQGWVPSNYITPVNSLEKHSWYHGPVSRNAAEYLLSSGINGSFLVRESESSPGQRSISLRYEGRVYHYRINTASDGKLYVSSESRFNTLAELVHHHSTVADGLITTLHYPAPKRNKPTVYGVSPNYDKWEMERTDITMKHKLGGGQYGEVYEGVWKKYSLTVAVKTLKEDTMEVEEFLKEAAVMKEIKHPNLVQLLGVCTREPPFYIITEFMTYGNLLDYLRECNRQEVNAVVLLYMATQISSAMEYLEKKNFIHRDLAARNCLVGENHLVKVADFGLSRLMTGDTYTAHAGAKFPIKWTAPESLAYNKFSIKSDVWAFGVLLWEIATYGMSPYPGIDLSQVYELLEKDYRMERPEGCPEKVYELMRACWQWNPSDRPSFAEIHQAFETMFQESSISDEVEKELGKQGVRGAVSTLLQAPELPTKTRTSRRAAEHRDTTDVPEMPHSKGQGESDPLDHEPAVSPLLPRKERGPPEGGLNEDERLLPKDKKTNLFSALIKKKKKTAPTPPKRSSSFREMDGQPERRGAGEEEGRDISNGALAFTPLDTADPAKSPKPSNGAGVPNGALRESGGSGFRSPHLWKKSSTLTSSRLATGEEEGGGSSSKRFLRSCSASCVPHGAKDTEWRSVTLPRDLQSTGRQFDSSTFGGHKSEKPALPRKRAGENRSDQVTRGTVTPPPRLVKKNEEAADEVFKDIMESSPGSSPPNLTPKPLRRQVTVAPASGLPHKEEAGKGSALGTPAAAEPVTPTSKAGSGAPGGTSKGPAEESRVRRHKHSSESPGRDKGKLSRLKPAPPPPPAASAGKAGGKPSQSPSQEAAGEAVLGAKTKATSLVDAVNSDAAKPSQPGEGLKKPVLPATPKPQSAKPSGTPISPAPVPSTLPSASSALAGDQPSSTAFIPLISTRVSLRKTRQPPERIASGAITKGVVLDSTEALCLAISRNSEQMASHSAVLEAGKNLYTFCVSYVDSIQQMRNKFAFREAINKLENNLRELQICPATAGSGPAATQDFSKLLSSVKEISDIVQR", "assay": "Abl filter-binding kinase assay (Abtide, [γ-32P]ATP)", "type": "biochemical", "settings": "isolated Abl; calculated from ID50, ATP-competitive; E0 0.005, S0 0.012 µM", "experimental": "Baculovirus-produced recombinant purified his-tagged active against human Src and Abl were purchased from Upstate (Lake Placid, NY, USA).\nSrc activity was measured in a filter-binding assay using the Src Assay Kit (Upstate, Lake Placid, NY, USA), according to the manufacturer's protocol, using the specific Src peptide substrate [[…]] in the presence of 0.125 pmol of Src and 0.160 pmol of [γ-^32P]ATP. Abl activity was measured in a filter-binding assay using an Abl specific peptide substrate (Abtide, Upstate). Reaction conditions were (in a final volume of 10 µl): 25 mM Tris-HCl pH 7.5, 1 mM DTT, 0.012 µM [γ-^32P]ATP, 0.022 µM c-Abl. Reactions were incubated 10 min at 30°C.The samples (9 µl) were spotted on paper cellulose filters which were washed according to the manufacturer's protocol. Filter-bound radioactivity was measured by liquid scintillation with a Microbeta-Trilux apparatus (PerkinElmer, Waltham, MA, USA).\nThe ID50 were converted to Ki according to a competitive mechanism with respect to the substrate ATP. […] Since (i) the ATP concentration was limiting, i.e., [ATP], Km(ATP), and (ii) the enzyme concentration was not negligible with respect to the ATP concentration, the classical Cheng-Prusoff relationship was not applicable. Consequently, Ki values were calculated according to [drawing 3] (2) where S0 is the concentration of the competing substrate (ATP) and E0 is the concentration of the enzyme. Each experiment was done in triplicate and mean values were used for the interpolation. Curve fitting was performed with the program GraphPad Prism."}, "[2]": {"tested_on": "tumour cell lines", "assay": "Cell cycle analysis, statements over the cell line panel", "type": "cell-based", "settings": "IC50 concentration, 96 h", "experimental": "CycleTEST™ PLUS DNA Reagent Kit (Becton Dickinson GmbH, Heidelberg, Germany) for cell cycle analysis was used, according to the instructions of the manufacturer. Briefly, the cells were harvested with trypsin, washed with PBS, and resuspended in CycleTEST Buffer. The cells were centrifuged and resuspended in solution A. After incubation for 10 min at room temperature, solution B was added and incubated. After adding solution C, the samples were incubated at 4°C protected from light. The samples were stored on ice and protected from light until analysis by FACScan flow cytometer (Becton Dickinson GmbH, Heidelberg, Germany)."}, "[3]": {"tested_on": "GammaD12", "settings": "IC50 concentration, 24 h, vs vehicle", "experimental": "According to instructions, Caspase-Glo® 3/7 assay (Promega GmbH, Mannheim, Germany) was used for monitoring caspase activity. Briefly, the same volume Caspase-Glo reagent as culture medium was added and incubated 1 h at room temperature. Luminescence was read with a Victor3 Wallac 1420 Multilabel counter (PerkinElmer, Rodgau, Germany). Background absorbance (medium only) was subtracted and the data given as percent of vehicle controls."}, "[4]": {"tested_on": "all tested cell lines", "assay": "Caspase-Glo 3/7 activity assay, all tested cell lines", "type": "cell-based", "settings": "IC50 concentration, 24 h; vs vehicle"}, "[5]": {"tested_on": "A2C12", "assay": "Whole genome expression analysis (Affymetrix microarray)", "type": "cell-based, mouse", "settings": "for Significantly differentially regulated genes, downregulated (number) / Significantly differentially regulated genes, upregulated (number): SAM FDR<0.01, FC>2", "experimental": "The cells were harvested and RNA was isolated using RNeasy Mini Kit (Qiagen, Hilden, Germany) according to the instructions of the manufacturer. The isolated RNA (250 ng) was processed further using standard protocols as described recently with the exception of the 3′ IVT Express Kit (Affymetrix, High Wycombe, UK) that was utilized according to instructions. Quality control of cRNA was done with the Agilent 2100 Bioanalyzer (Agilent Tech according to manufacturer's protocols. Following fragmentation, cRNA of each sample was hybridized to Affymetrix GeneChip® Mouse Genome 430 2.0 or Human Genome U133 Plus 2.0 and scanned with an Affymetrix 3000 7G scanner.\nThe resultant data was normalized by Probe Logarithmic Intensity Error Estimation (PLIER) algorithm. Statistical analysis was carried out with the ArrayTrack software (National Center for Toxicological Research/FDA, Jefferson, AR, USA) using SAM algorithm."}, "[6]": {"tested_on": "murine and human tumour cell lines", "assay": "MTS cell viability assay, statements over the cell line panel", "type": "cell-based", "settings": "96 h; cell line not stated at b77; read-out: IC50 (MTS) after 96 h of treatment", "experimental": "Three human and eleven murine cancer cell lines were used. The human NSCLC cell line A549 (ACC 107) and the human colorectal carcinoma cell line CaCo2 (ACC 169) were obtained from Deutsche Sammlung von Mikroorganismen und Zellkulturen (DSMZ, Braunschweig, Germany). The human hepatocellular carcinoma cell line HepG2 (HB-8065) was obtained from American Type Culture Collection (Manassas, VA, USA). The 11 murine NSCLC cell lines were established as described recently. Cells were grown in monolayer cultures in DMEM containing 10% foetal calf serum, 4 mmol/l L-glutamine and 2% Penicillin/Streptomycin at 37°C in a humidified atmosphere of 95% air and 5% CO2.\nCell culture viability was monitored by CellTiter96® AQueous One Solution Cell Proliferation Assay (Promega GmbH, Mannheim, Germany). The cells were seeded in triplicates in 96-well microtitre plates and treated with the dual kinase inhibitors or vehicle (0.2% DMSO). After 24 h or 96 h of treatment the MTS tetrazolium reagent was added to the cells and incubated for 1 h. Absorbance at 490 nm was assayed with a Victor3 Wallac 1420 Multilabel counter (PerkinElmer, Waltham, MA, USA)."}, "[7]": {"tested_on": "BetaD5", "assay": "Caspase-Glo 3/7 activity assay", "type": "cell-based, mouse", "settings": "IC50 concentration, 24 h, vs vehicle"}, "[8]": {"tested_on": "GammaA3", "assay": "Caspase-Glo 3/7 activity assay", "type": "cell-based, mouse", "settings": "IC50 concentration"}, "[9]": {"settings": "IC50 concentration, 96 h, vs control"}}, "note": "pIC50, pKi: −log10 of the molar value."}
{"smiles": "Fc1ccccc1CNc1ncnc2c1cnn2CC(Cl)c1ccc(Br)cc1", "note": "(stereo not drawn) [Si162]", "values": [{"measurement": "pKi", "setting": "[1]", "result": 6.35}, {"measurement": "Cell cycle arrest (phase, in words)", "setting": "[2]", "result": "arrest in G2/M"}, {"measurement": "Increase in caspase-3/7 activity", "setting": "[3]", "result": "up to 3 fold"}, {"measurement": "Change of caspase-3/7 activity in all cell lines", "setting": "[4]", "result": "increased"}, {"measurement": "Actg2 (actin, gamma 2, smooth muscle, enteric) regulated gene, Si162 vs Ktr FC", "setting": "[5]", "result": -4.94}, {"measurement": "Ccl5 (chemokine (C-C motif) ligand 5) regulated gene, Si162 vs Ktr FC", "setting": "[5]", "result": 2.52}, {"measurement": "Ccna2 (cyclin A2) regulated gene, Si162 vs Ktr FC", "setting": "[5]", "result": -4.48}, {"measurement": "Ccnb2 (cyclin B2) regulated gene, Si162 vs Ktr FC", "setting": "[5]", "result": -4.51}, {"measurement": "Cenpa (centromere protein A) regulated gene, Si162 vs Ktr FC", "setting": "[5]", "result": -4.34}, {"measurement": "Ctsb (cathepsin B) regulated gene, Si162 vs Ktr FC", "setting": "[5]", "result": 1.13}, {"measurement": "Cxcl12 (chemokine (C-X-C motif) ligand 12) regulated gene, Si162 vs Ktr FC", "setting": "[5]", "result": -1.05}, {"measurement": "Errfi1 (ERBB receptor feedback inhibitor 1) regulated gene, Si162 vs Ktr FC", "setting": "[5]", "result": -4.38}, {"measurement": "Gadd45a (growth arrest and DNA-damage-inducible, alpha) regulated gene, Si162 vs Ktr FC", "setting": "[5]", "result": 1.40}, {"measurement": "Itga5 (integrin, alpha 5 (fibronectin receptor, alpha polypeptide)) regulated gene, Si162 vs Ktr FC", "setting": "[5]", "result": -4.81}, {"measurement": "Mdm2 (Mdm2 p53 binding protein homolog (mouse)) regulated gene, Si162 vs Ktr FC", "setting": "[5]", "result": 1.88}, {"measurement": "Mmp3 (matrix metallopeptidase 3 (stromelysin 1, progelatinase)) regulated gene, Si162 vs Ktr FC", "setting": "[5]", "result": 3.28}, {"measurement": "Mmp13 (matrix metallopeptidase 13 (collagenase 3)) regulated gene, Si162 vs Ktr FC", "setting": "[5]", "result": 3.90}, {"measurement": "Nfib (nuclear factor I/B) regulated gene, Si162 vs Ktr FC", "setting": "[5]", "result": -4.56}, {"measurement": "Ogn (osteoglycin) regulated gene, Si162 vs Ktr FC", "setting": "[5]", "result": -5.77}, {"measurement": "Pdgfrb (platelet-derived growth factor receptor, beta polypeptide) regulated gene, Si162 vs Ktr FC", "setting": "[5]", "result": -4.68}, {"measurement": "Plk1 (polo-like kinase 1 (Drosophila)) regulated gene, Si162 vs Ktr FC", "setting": "[5]", "result": -4.48}, {"measurement": "Ptn (pleiotrophin) regulated gene, Si162 vs Ktr FC", "setting": "[5]", "result": -4.92}, {"measurement": "Sfrp1 (secreted frizzled-related protein 1) regulated gene, Si162 vs Ktr FC", "setting": "[5]", "result": 1.12}, {"measurement": "Spp1 (secreted phosphoprotein 1) regulated gene, Si162 vs Ktr FC", "setting": "[5]", "result": 1.21}, {"measurement": "Srf (serum response factor) regulated gene, Si162 vs Ktr FC", "setting": "[5]", "result": -4.68}, {"measurement": "Tgfb1i1 (transforming growth factor beta 1 induced transcript 1) regulated gene, Si162 vs Ktr FC", "setting": "[5]", "result": -4.59}, {"measurement": "Tgfb3 (transforming growth factor, beta 3) regulated gene, Si162 vs Ktr FC", "setting": "[5]", "result": -4.49}, {"measurement": "Tlr4 (toll-like receptor 4) regulated gene, Si162 vs Ktr FC", "setting": "[5]", "result": 1.09}, {"measurement": "Tnc (tenascin C) regulated gene, Si162 vs Ktr FC", "setting": "[5]", "result": -5.20}, {"measurement": "Tp53 (tumor protein p53) regulated gene, Si162 vs Ktr FC", "setting": "[5]", "result": -4.50}, {"measurement": "Zyx (zyxin) regulated gene, Si162 vs Ktr FC", "setting": "[5]", "result": -5.47}, {"measurement": "Significantly regulated genes, total (number)", "setting": "[5]; IC50 concentration, 96 h", "result": "> 500"}, {"measurement": "Significantly differentially regulated genes, downregulated (number)", "setting": "[5]; IC50 concentration, 96 h", "result": 212}, {"measurement": "Significantly differentially regulated genes, upregulated (number)", "setting": "[5]; IC50 concentration, 96 h", "result": 357}]}
{"smiles": "Clc1cccc(Nc2nc(SC3CCCC3)nc3c2cnn3CC(Cl)c2ccccc2)c1", "note": "(stereo not drawn) [Si135]", "values": [{"measurement": "pKi", "setting": "[1]", "result": 6.92}, {"measurement": "pIC50", "setting": "[6]", "result": 5.57}, {"measurement": "Increase in caspase-3/7 activity", "setting": "[7]", "result": 10, "unit": "fold"}, {"measurement": "Increase in caspase-3/7 activity", "setting": "[8]; 24 h, vs vehicle", "result": 10, "unit": "fold"}, {"measurement": "Increase in caspase-3/7 activity", "setting": "[8]; 96 h", "result": "about 30 % of control"}, {"measurement": "Significantly differentially regulated genes, downregulated (number)", "setting": "[5]; IC50 concentration, 96 h", "result": 33}, {"measurement": "Significantly differentially regulated genes, upregulated (number)", "setting": "[5]; IC50 concentration, 96 h", "result": 118}, {"measurement": "Actg2 gene expression", "setting": "[5]; [9]", "result": "-4.51 log2 of fold change"}, {"measurement": "Ctgf gene expression", "setting": "[5]; [9]", "result": "1.05 log2 of fold change"}, {"measurement": "Dusp3 gene expression", "setting": "[5]; [9]", "result": "1.06 log2 of fold change"}, {"measurement": "Gadd45a gene expression", "setting": "[5]; [9]", "result": "1.81 log2 of fold change"}, {"measurement": "Il6 gene expression", "setting": "[5]; [9]", "result": "-4.69 log2 of fold change"}, {"measurement": "Mmp13 gene expression", "setting": "[5]; [9]", "result": "2.95 log2 of fold change"}, {"measurement": "Mtm1 gene expression", "setting": "[5]; [9]", "result": "1.00 log2 of fold change"}, {"measurement": "Ptn gene expression", "setting": "[5]; [9]", "result": "-5.35 log2 of fold change"}, {"measurement": "Ptprg gene expression", "setting": "[5]; [9]", "result": "1.05 log2 of fold change"}]}
{"smiles": "CSc1nc(NCCc2ccc(Cl)cc2)c2cnn(CC(Cl)c3ccccc3)c2n1", "note": "(stereo not drawn) [Si57]", "values": [{"measurement": "Change of caspase-3/7 activity in all cell lines", "setting": "[4]", "result": "declined"}]}
